This passage reports IC50 results from BindingDB's records for patent US20250313563 (The Broad Institute, 2025).

What is called IC50 is the concentration that inhibits the measured activity by half.

The structures appear in SMILES notation. Several values for one entry are separate records, joined by “and”; a condition that tells them apart may be missing. Identical values can stand only once. Bounds are passed on as bounds.

The target of assay [1] is Glycogen synthase kinase-3 alpha (Homo sapiens, UniProt P49840). Put plainly: TR-FRET Assay. The method in brief:
(§1)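 30 min preinc w/ cpd in assay buffer → kinase rxn → EDTA quench → add detection mix (40 nM SA-d2, 2 nM Tb-pSer641 Ab) → TR-FRET read.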
For orientation: Time-resolved FRET reads energy transfer from a long-lived donor to a nearby acceptor.

The target of assay [2] is Glycogen synthase kinase-3 beta (Homo sapiens, UniProt P49841). Put plainly: TR-FRET Assay. A digest of the protocol:
as §1

Glycogen synthase kinase-3 alpha, sequence (P49840 whole entry): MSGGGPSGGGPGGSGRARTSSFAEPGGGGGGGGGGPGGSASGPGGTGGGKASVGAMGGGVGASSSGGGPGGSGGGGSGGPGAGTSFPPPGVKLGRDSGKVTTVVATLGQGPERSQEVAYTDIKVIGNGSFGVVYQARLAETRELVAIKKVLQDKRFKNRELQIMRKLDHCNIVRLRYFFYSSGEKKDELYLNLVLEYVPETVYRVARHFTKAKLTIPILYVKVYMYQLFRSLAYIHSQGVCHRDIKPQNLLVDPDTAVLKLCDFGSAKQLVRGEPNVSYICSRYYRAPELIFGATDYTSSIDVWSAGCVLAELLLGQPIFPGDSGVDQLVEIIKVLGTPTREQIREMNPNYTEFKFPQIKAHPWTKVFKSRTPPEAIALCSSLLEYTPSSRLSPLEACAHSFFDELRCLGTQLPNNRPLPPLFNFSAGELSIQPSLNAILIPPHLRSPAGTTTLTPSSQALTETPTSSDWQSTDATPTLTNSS
Glycogen synthase kinase-3 beta, sequence (P49841 whole entry): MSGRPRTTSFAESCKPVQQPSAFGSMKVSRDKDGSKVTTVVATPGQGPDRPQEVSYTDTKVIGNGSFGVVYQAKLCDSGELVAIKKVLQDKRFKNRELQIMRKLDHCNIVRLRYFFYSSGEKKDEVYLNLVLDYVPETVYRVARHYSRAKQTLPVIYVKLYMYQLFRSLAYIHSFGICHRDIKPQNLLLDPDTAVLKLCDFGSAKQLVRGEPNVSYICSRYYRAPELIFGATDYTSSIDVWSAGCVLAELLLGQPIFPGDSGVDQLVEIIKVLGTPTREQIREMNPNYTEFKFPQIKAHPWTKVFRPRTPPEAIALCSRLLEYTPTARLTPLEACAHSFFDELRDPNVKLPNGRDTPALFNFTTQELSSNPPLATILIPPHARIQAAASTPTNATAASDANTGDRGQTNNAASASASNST

As to `CCC1(c2cccc(N(C)C(=O)CN3CCCC3)c2)C2=CN=NC2NC2=C1C(=O)CC(C)(C)C2` (configuration not stated) [US20250313563, Compound 913125], the IC50 was under 100 nM in assay [1] and 100 to 1000 nM in assay [2].

On to `COc1ccc(S(=O)(=O)N2CCC3(CC2)C2=C(N=NC2)NC2=C3C(=O)CC(C)(C)C2)cc1Cl` [US20250313563, Compound 947612], for which the IC50 in assay [1] and in assay [2] was under 100 nM in each case.

On to `CC[C@@]1(c2cccc(-c3cn(C)nc3C)c2)C2=C(N=NC2)NC2=C1C(=O)C(C)(C)C2` [US20250313563, Compound 951702], for which the IC50 in assay [1] and in assay [2] was 100 to 1000 nM in each case.

With `CC[C@]1(c2ccccc2)C2=CN=NC2NC2=C1C(=O)[C@@H](F)C(C)(C)C2` (some centres not stated) [US20250313563, Compound 957405], the IC50 in assay [1] fell in the range of 100 to 1000 nM; in assay [2] it was 1000 to 5000 nM.

Consider `CCC1(c2cccc(-c3cnc4n3CCCC4)c2)C2=CN=NC2NC2=C1C(=O)CC(C)(C)C2` (configuration not stated) [US20250313563, Compound 943535], for which the IC50 in assay [1] and in assay [2] was under 100 nM throughout.

For the compound `CC[C@]1(c2cccc(-c3ccnc4ccccc34)c2)C2=CN=NC2NC2=C1C(=O)CC(C)(C)C2` (some centres not stated) [US20250313563, Compound 944034], the IC50 in assay [1] and in assay [2] was over 5000 nM in each case.

On to `CCn1ccc(S(=O)(=O)N2CCC3(CC2)C2=C(N=NC2)NC2=C3C(=O)CC(C)(C)C2)n1` [US20250313563, Compound 945671], for which the IC50 in assay [1] and in assay [2] was under 100 nM each time.

Regarding `CC[C@]1(c2cccc(-c3ccnn3C)c2)C2=CN=NC2NC2=C1C(=O)CC(C)(C)[C@@H]2F` (some centres not stated) [US20250313563, Compound 957506], the IC50 in assay [1] is < 100 nM and 100 to 1000 nM; in assay [2], 100 to 1000 nM and > 5000 nM.

Turning to `CC1(C)CC(=O)C2=C(C1)NC1N=NC(C(F)(F)F)=C1C21CCCOc2ccccc21` (configuration not stated) [US20250313563, Compound 790632], the IC50 in assay [1] and in assay [2] was over 5000 nM in each case.

For `CC1(C)CC(=O)C2=C(C1)NC1=C(CN=N1)C21COC2(CN(C(=O)CC3CC(F)(F)C3)C2)C1` (configuration not stated) [US20250313563, Compound 947278], the IC50 in assay [1] and in assay [2] was under 100 nM in each case.

Take `CC[C@@]1(c2cccc(N(C)c3ncccn3)c2)C2=CN=NC2NC2=C1C(=O)NC(C)(C)C2` (some centres not stated) [US20250313563, Compound 943965]: the IC50 in assay [1] is 100 to 1000 nM; in assay [2] it was over 5000 nM.

Regarding `CCc1cc(N(C)c2cccc(C3(CC)C4=CN=NC4NC4=C3C(=O)CC(C)(C)C4)c2)ccn1` (configuration not stated) [US20250313563, Compound 917147], the IC50 in assay [1] was under 100 nM; in assay [2], 100 to 1000 nM.

With `CC[C@@]1(c2cccc(-c3cc(C)nn3C)c2)C2=C(N=NC2)NC2=C1C(=O)C(C)(C)C2` [US20250313563, Compound 950818], the IC50 in assay [1] was 100 to 1000 nM; in assay [2], 1000 to 5000 nM.

With `CC[C@]1(c2cccc(-c3cn(C)nc3C)c2)C2=CN=NC2NC2=C1C(=O)NC(C)(C)C2` (some centres not stated) [US20250313563, Compound 945480], the IC50 was 1000 to 5000 nM in assay [1] and over 5000 nM in assay [2].

Turning to `CC1(C)CC(=O)C2=C(C1)NC1=C(CN=N1)C21CCN(S(=O)(=O)C2CCCCC2)CC1` [US20250313563, Compound 913128], the IC50 in assay [1] was under 100 nM; in assay [2] it was < 100 nM and 100 to 1000 nM.

In the case of `CCc1cc(-c2cccc([C@]3(CC)C4=CN=NC4NC4=C3C(=O)NC(C)(C)C4)c2)n(C)n1` (some centres not stated) [US20250313563, Compound 952561], the IC50 in assay [1] and in assay [2] was 100 to 1000 nM in each case.

As to `CCn1cc(N2CCC3=C(C2=O)[C@](CC)(c2cccc(C(F)(F)F)c2)C2=CN=NC2N3)cn1` (some centres not stated) [US20250313563, Compound 949868], the IC50 in assay [1] is 100 to 1000 nM; in assay [2] it was over 5000 nM.

Turning to `CC[C@@]1(c2cccc(-c3ccncc3C3CC3)c2)C2=CN=NC2NC2=C1C(=O)NC(C)(C)C2` (some centres not stated) [US20250313563, Compound 950059], the half-maximal inhibitory concentration (IC50) in assay [1] is < 100 nM and 100 to 1000 nM; in assay [2], < 100 nM and 1000 to 5000 nM.

Take `CC1(C)CC(=O)C2=C(C1)NC1=C(CN=N1)C21COC2(CN(C(=O)C(F)F)C2)C1` (configuration not stated) [US20250313563, Compound 947485]: the IC50 in assay [1] and in assay [2] was under 100 nM throughout.

For `CC[C@@]1(c2cccc(-c3ccnc4c3CCCC4)c2)C2=C(N=NC2)NC2=C1C(=O)N(Cc1ccccc1)C2` [US20250313563, Compound 948552], the IC50 in assay [1] was 100 to 1000 nM; in assay [2] it was over 5000 nM.

Consider `C[C@@H]1CC(=O)C2=C(C1)NC1=C(CN=N1)C21CCOCC1` [US20250313563, Compound 912079], for which the IC50 in assay [1] and in assay [2] was 100 to 1000 nM in each case.

With `CC[C@@]1(c2cccc(-c3ccncc3C)c2)C2=CN=NC2NC2=C1C(=O)NC1(CCCC1)C2` (some centres not stated) [US20250313563, Compound 948022], the IC50 is under 100 nM in assay [1]; < 100 nM and 100 to 1000 nM in assay [2].

Take `CCC1(c2cccc(N(C)c3cccnc3)c2)C2=CN=NC2NC2=C1C(=O)CC(C)(C)C2` (configuration not stated) [US20250313563, Compound 865168]: the IC50 in assay [1] and in assay [2] was under 100 nM each time.

With `CC[C@]1(c2cccc(N(C)c3cccc(C)n3)c2)C2=CN=NC2NC2=C1C(=O)CC(C)(C)C2` (some centres not stated) [US20250313563, Compound 932644], the IC50 in assay [1] and in assay [2] was over 5000 nM in each case.

Regarding `CC[C@]1(c2cccc(N(C)c3cccc(OC)n3)c2)C2=CN=NC2NC2=C1C(=O)CC(C)(C)C2` (some centres not stated) [US20250313563, Compound 932646], the IC50 in assay [1] and in assay [2] was over 5000 nM throughout.

Take `CC[C@@]1(c2cccc(C3CC3)c2)C2=CN=NC2NC2=C1C(=O)NC(C)(C)C2` (some centres not stated) [US20250313563, Compound 950828]: the IC50 in assay [1] is < 100 nM and 1000 to 5000 nM; in assay [2] it was over 5000 nM.

`CC[C@@]1(c2cccc(S(=O)(=O)C(C)C)c2)C2=CN=NC2NC2=C1C(=O)NC(C)(C)C2` (some centres not stated) [US20250313563, Compound 947823]: the IC50 in assay [1] is 100 to 1000 nM; in assay [2], 1000 to 5000 nM.

As to `CC[C@]1(c2cccc(-c3ccnc(C)c3)c2)C2=CN=NC2NC2=C1C(=O)N[C@H](C)C2` (some centres not stated) [US20250313563, Compound 926212], the IC50 was under 100 nM in assay [1] and 1000 to 5000 nM in assay [2].

Consider `COC(=O)C1(c2ccccc2)CC2(C1)C1=C(N=NC1)NC1=C2C(=O)CC(C)(C)C1` (configuration not stated) [US20250313563, Compound 942366], for which the IC50 in assay [1] and in assay [2] was under 100 nM each time.

As to `CC1(C)CC(=O)C2=C(C1)NC1=C(C(C3CC3)N=N1)C21CN(S(=O)(=O)CC2CC2)C1` (configuration not stated) [US20250313563, Compound 109152], the IC50 in assay [1] and in assay [2] was 100 to 1000 nM in each case.

For `CCN(c1cccnc1)c1cccc([C@]2(CC)C3=CN=NC3NC3=C2C(=O)CC(C)(C)C3)c1` (some centres not stated) [US20250313563, Compound 917089], the IC50 in assay [1] was 100 to 1000 nM; in assay [2], 1000 to 5000 nM.

In the case of `CC(C)(C)CC1N=NC2=C1[C@@](C)(c1cccc(S(=O)(=O)N3CCCC3)c1)C1=C(CC(C)(C)NC1=O)N2` (some centres not stated) [US20250313563, Compound 108794], the IC50 in assay [1] and in assay [2] was over 5000 nM throughout.

On to `CC1(C)CC(=O)C2=C(C1)NC1=C(CN=N1)[C@]21C[C@@H](c2ccncc2)C1` [US20250313563, Compound 889665], for which the IC50 in assay [1] was under 100 nM; in assay [2] it was < 100 nM and 100 to 1000 nM.

For `CCC1(c2cccc(C(C)(C)F)c2)C2=CN=NC2NC2=C1C(=O)N(C)CC2` (configuration not stated) [US20250313563, Compound 913178], the IC50 is 100 to 1000 nM in assay [1] and 1000 to 5000 nM in assay [2].

In the case of `CCC1(c2cccc(C(F)(F)F)c2)C2=C(N=NC2)NC2=C1C(=O)N(C)C2(C)C` (configuration not stated) [US20250313563, Compound 913198], the figures for the IC50 in assay [1] and in assay [2] were under 100 nM and 100 to 1000 nM, respectively.

Consider `CC1(C)CC(=O)C2=C(C1)NC1N=NC=C1[C@]21CCOC2(CCCC2)C1` (some centres not stated) [US20250313563, Compound 907327], for which the IC50 in assay [1] is 100 to 1000 nM; in assay [2], 1000 to 5000 nM.

Regarding `CC1(C)CC(=O)C2=C(C1)NC1=C(CN=N1)C21CCN(S(=O)(=O)c2ccn(-c3ccccc3)n2)CC1` [US20250313563, Compound 947461], the IC50 in assay [1] and in assay [2] was under 100 nM throughout.

Consider `CC[C@@]1(c2cccc(-c3cc(C)nc4c3cnn4C)c2)C2=CN=NC2NC2=C1C(=O)NC(C)(C)C2` (some centres not stated) [US20250313563, Compound 952563], for which the IC50 was 1000 to 5000 nM in assay [1] and over 5000 nM in assay [2].

Regarding `CCC1(c2cccc(S(=O)(=O)CC3CC3)c2)C2=CN=NC2NC2=C1C(=O)NC(C)(C)C2` (configuration not stated) [US20250313563, Compound 948177], the results for the IC50 in assay [1] and in assay [2] were under 100 nM and 100 to 1000 nM, respectively.

On to `CC[C@@]1(c2cccc(-c3ccnc(C)c3)c2)C2=CN=NC2NC2=C1C(=O)[C@H](F)C(C)(C)C2` (some centres not stated) [US20250313563, Compound 945476], for which the IC50 was < 100 nM and 100 to 1000 nM in assay [1]; 100 to 1000 nM and > 5000 nM in assay [2].

As to `CCC1(c2cccc(-c3ccnn3C)c2)C2=CN=NC2NC2=C1C(=O)CC(C)(C)C2` (configuration not stated) [US20250313563, Compound 883852], the IC50 in assay [1] and in assay [2] was under 100 nM each time.

`CC[C@]1(c2cccc(-c3ccnc(C)c3)c2)C2=CN=NC2NC2=C1C(=O)N[C@@H](C)C2` (some centres not stated) [US20250313563, Compound 932658]: the figures for the IC50 in assay [1] and in assay [2] were under 100 nM and 100 to 1000 nM, respectively.

For the compound `Cc1noc(C2CCC3(CC2)C2=C(N=NC2)NC2=C3C(=O)CC(C)(C)C2)n1` (configuration not stated) [US20250313563, Compound 943895], the IC50 in assay [1] and in assay [2] was 100 to 1000 nM in each case.

As for `COc1ccc(S(=O)(=O)N2CCC3(CC2)C2=C(N=NC2)NC2=C3C(=O)CC(C)(C)C2)cc1F` [US20250313563, Compound 947478], the IC50 in assay [1] and in assay [2] was under 100 nM each time.

As for `COc1cccc(S(=O)(=O)N2CCCC3(CC2)C2=CN=NC2NC2=C3C(=O)CC(C)(C)C2)c1` (configuration not stated) [US20250313563, Compound 917140], the IC50 was under 100 nM in assay [1] and 100 to 1000 nM in assay [2].

Consider `CC[C@@]1(c2cccc(-c3cc(C)ncc3C)c2)C2=C(CC(C)(C)NC2=O)NC2N=NC(C(F)(F)F)=C21` (some centres not stated) [US20250313563, Compound 947364], for which the IC50 in assay [1] and in assay [2] was 100 to 1000 nM throughout.
